Among the test systems are SK-OV-3 ovarian; TK-10 renal; DLD-1 colon; DMS 273 small cell lung; HOP-18 NSCLC; KM20L2 colon; LXFL 529 NSCLC; M19-MEL melanoma; SNB-78 CNS; DMS 114 small cell lung.
Common to all, as to test: inhibition of tumour cell growth, NCI panel, 48 h

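A five-concentration, 48-hour dose response in 96-well plates underlies each endpoint, interpolated linearly between surrounding concentrations. TGI: concentration producing complete growth inhibition.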 Where a SMILES comes first, the peptide text is derived from it. [ ]: non-standard residue; d: D form. The star is where a group is joined. Phe(4-NO2) = N[CH](Cc1ccc([N+](=O)[O-])cc1)C(=O)O; Cbz = O=C(OCc1ccccc1)* Where only a bound is given, the exact number is not on record here.

On to `COc1ccc(/C=N/n2c(=O)[nH]c3ccccc3c2=O)cc1`, for which the TGI in the assay with SK-OV-3 ovarian and in the assay with TK-10 renal was greater than 100 µM each time.
Consider `Cc1n[n+](CC(=O)c2ccccc2)c2sc(N)nn12`, for which the TGI with SK-OV-3 ovarian and with TK-10 renal was greater than 100 µM each time.
As to `CCOC(=O)N1CC2(C)C=CC1C(C(=O)OC)C2` (stereo not given), the TGI in the assay with SK-OV-3 ovarian and in the assay with TK-10 renal was greater than 100 µM each time.
Turning to `C/C(=C/c1ccccc1)CN(C(=O)/C=C\Sc1ccccc1)C(C)(C)C`, the TGI with SK-OV-3 ovarian and in the assay with TK-10 renal was greater than 100 µM in each case.
Turning to `CCCCC(C(=O)N/N=C/c1ccc([N+](=O)[O-])o1)C(=O)N/N=C/c1ccc([N+](=O)[O-])o1`, the TGI in the assay on SK-OV-3 ovarian was 50.9 µM; in the assay with TK-10 renal, 7.73 µM.
The like results for `CC(=O)OCC1OC(n2c(C#N)cc(=O)[nH]c2=O)CC1OC(C)=O` (stereo not given) were, in that order, greater than 100 µM and greater than 100 µM.
For `Cc1nnc2sc(Cl)nn12`, the TGI in the assay with SK-OV-3 ovarian stood at 31 µM; with TK-10 renal, 68.5 µM.
The matching figures for `CC(=O)OCc1ccc2oc(=O)c(C(=O)Oc3cccc(Cl)c3)cc2c1`: greater than 100 µM and 91.6 µM.
Turning to `CC(C)(C)N1C(=O)c2ccccc2C1(O)C(F)(F)F` (stereo not given), the TGI in the assay with SK-OV-3 ovarian and in the assay on TK-10 renal was greater than 100 µM in each case.
For the molecule `NC1OC(COC(=O)c2ccccc2)C(O)C(OC(=O)c2ccccc2)C1OC(=O)c1ccccc1` (stereo not given), the TGI in the assay on SK-OV-3 ovarian and with TK-10 renal was greater than 100 µM in each case.
As for `COc1ccc(N=Nc2c(C)c(C#N)c(=S)n(C3OC(COC(C)=O)C(OC(C)=O)C(OC(C)=O)C3OC(C)=O)c2C)cc1` (stereo not given), the TGI in the assay with SK-OV-3 ovarian and in the assay on TK-10 renal was greater than 100 µM each time.
For `Cc1ccccc1N=CN(C)C`, the TGI in the assay on SK-OV-3 ovarian and in the assay on TK-10 renal was greater than 100 µM each time.
`C=CC(CBr)CCC(Br)C(C)(C)Br` (stereo not given): the TGI in the assay with SK-OV-3 ovarian and in the assay on TK-10 renal was greater than 10 µM throughout.
Consider `CCOC(=O)[C@@H]1OC(c2ccccc2)O[C@H]1C(=O)OCC`, for which the TGI with SK-OV-3 ovarian and in the assay with TK-10 renal was greater than 100 µM in each case.
On to `Cn1c2c(c3ccccc31)CCN1OCC=C[C@@H](C(=O)O)[C@@H]21`, for which the TGI in the assay on SK-OV-3 ovarian and with TK-10 renal was greater than 100 µM each time.
As to `O=C1C=CC(=O)c2c1cc([N+](=O)[O-])c1ccoc21`, the TGI in the assay with SK-OV-3 ovarian is 43.6 µM; with TK-10 renal, 4.37 µM.
The matching figures for `Cc1c(-c2ccccc2)[nH]c2ccc(Cl)cc2c1=O`: 87.6 µM and greater than 100 µM.
The like results for `O=C(NO)c1ccc(OCc2cccc(Cl)c2)cc1` were, in that order, 66.1 µM and 32.3 µM.
The matching figures for `CN(C)C(=S)N1C(=S)N(c2ccccc2)C(=Nc2ccccc2)C1=Nc1ccccc1`: greater than 100 µM and greater than 100 µM.
For `c1ccc(CSc2ccccc2CN2CCN(Cc3ccccc3SCc3ccccc3)CCN(Cc3ccccc3SCc3ccccc3)CC2)cc1`, the TGI with SK-OV-3 ovarian is 6.34 µM; in the assay on TK-10 renal, 5.72 µM.
Consider `O=C1c2sc(-c3ccc(F)cc3)cc2-n2cccc21`, for which the TGI in the assay with SK-OV-3 ovarian turned out to be 63 µM; in the assay with TK-10 renal, 50.7 µM.
The like results for `O=C(/C=C/c1ccc(O)c(O)c1)OCc1ccccc1` were, in that order, 67.4 µM and 54.3 µM.
The matching figures for `COc1ccc2c(c1)CCN=C2Cc1ccccc1CCCl`: greater than 100 µM and greater than 100 µM.
Consider `CC1C(=NO)C(C)C(c2ccccc2)N(N=O)C1c1ccccc1` (stereo not given), for which the results for the TGI in the assay with SK-OV-3 ovarian and in the assay on TK-10 renal were 22.7 µM and 55.7 µM, respectively.
With `N#CC1(C#N)NC(c2cccnc2)C(C#N)(C#N)NC1c1cccnc1` (stereo not given), the TGI in the assay with SK-OV-3 ovarian and in the assay with TK-10 renal was greater than 100 µM each time.
For `CCN(CC)C(=S)SNc1ccc(S(N)(=O)=O)cc1`, the TGI in the assay with SK-OV-3 ovarian and in the assay with TK-10 renal was greater than 100 µM throughout.
For `COC(=O)C(Cc1ccccc1)NC(=O)C(CCC(=O)OCc1ccccc1)NC(=O)OC(C)(C)C` (stereo not given), the TGI with SK-OV-3 ovarian and with TK-10 renal was greater than 100 µM throughout.
For the molecule `CCN1CCN(c2nc3ccccc3nc2C(=O)c2ccc(OC)cc2)CC1`, the TGI in the assay on SK-OV-3 ovarian was greater than 100 µM; with TK-10 renal it was 70.4 µM.
As to `CC1(C)C(C#N)=[N+]([O-])C(C)(C)N1O`, the TGI in the assay with SK-OV-3 ovarian and in the assay with TK-10 renal was greater than 100 µM each time.
With `CCc1n[nH]c(=O)n1N1C(=O)CCC1=O`, the TGI with SK-OV-3 ovarian and in the assay with TK-10 renal was greater than 100 µM in each case.
As for `CCC(=O)C1(N2CCOCC2)CCN(CCCC(=O)c2ccc(F)cc2)CC1`, the TGI in the assay on SK-OV-3 ovarian and in the assay with TK-10 renal was greater than 100 µM each time.
As to `O=C(CSc1nnc(Cc2ccccc2)o1)Nc1cccc(Cl)c1`, the TGI in the assay on DLD-1 colon, in the assay on DMS 273 small cell lung, in the assay with HOP-18 NSCLC, in the assay on KM20L2 colon, in the assay with LXFL 529 NSCLC and in the assay with M19-MEL melanoma was greater than 100 µM each time. In addition, the TGI in the assay with SK-OV-3 ovarian, with SNB-78 CNS and in the assay on TK-10 renal was greater than 100 µM each time.
Take `Cc1nc2c(O)cc3c4c(=O)n(C)c(=O)n(C)c4n(Cc4ccccc4)c3c2nc1C`: the results for the TGI in the assay on SK-OV-3 ovarian and in the assay with TK-10 renal were 32.2 µM and 38.4 µM, respectively.
Regarding `Cc1cc(=O)oc2cc(SC(=O)N(C)C)ccc12`, the TGI in the assay on SK-OV-3 ovarian and in the assay with TK-10 renal was greater than 100 µM each time.
As to `NC(=O)NC(=O)CCC(NS(=O)(=O)c1ccccc1)C(=O)NC(N)=O` (stereo not given), the TGI in the assay with SK-OV-3 ovarian and in the assay on TK-10 renal was greater than 100 µM throughout.
Turning to `O=Nc1c(-c2c(O)[nH]c3ccccc23)[nH]c2ccccc12`, the TGI amounted to 21.2 µM in the assay with SK-OV-3 ovarian and 55.2 µM with TK-10 renal.
`O=C(Nc1ccc(Cl)cc1)NS(=O)(=O)c1coc2ccccc2c1=O`: the TGI in the assay on SK-OV-3 ovarian and with TK-10 renal was greater than 10 µM each time.
As to `CC(C)(Br)C(Br)CCC(=CCBr)CBr` (mixture of isomers), the TGI is 11.2 µM with DLD-1 colon; 3.51 µM with DMS 273 small cell lung; 31.9 µM in the assay with HOP-18 NSCLC; 11.6 µM with LXFL 529 NSCLC; 4.2 µM with M19-MEL melanoma; 36.4 µM in the assay on SK-OV-3 ovarian. For the same molecule, the TGI in the assay with SNB-78 CNS is 17.1 µM; in the assay with TK-10 renal, 22.5 µM.
In the case of `CCOC(=O)CCC(NC(=O)OCc1ccccc1)C(=O)NC(CCC(=O)OCC)C(=O)NC(Cc1ccc([N+](=O)[O-])cc1)C(=O)NC(CCC(=O)OCC)C(=O)NC(CCC(=O)OCC)C(=O)OCC` (stereo not given) (Cbz-E(OEt)E(OEt)[Phe(4-NO2)]E(OEt)E(OEt)-OEt; configuration not given here), the TGI in the assay with SK-OV-3 ovarian and in the assay on TK-10 renal was greater than 100 µM throughout.
Regarding `O=c1[nH]c(=O)n(C2OC(CO)C(O)C2O)c2ncc(-c3ccc(-c4ccccc4)cc3)nc12` (stereo not given), the TGI in the assay on SK-OV-3 ovarian and with TK-10 renal was greater than 20 µM in each case.
Consider `Cc1ccc2nc(N/N=C/c3ccc(C)s3)cc(C)c2c1`, for which the TGI with SK-OV-3 ovarian is 32.7 µM; in the assay on TK-10 renal, 25.2 µM.
The matching figures for `Cc1ccc(-c2cc(-c3ccc(Cl)cc3)nc(/N=C3\C(=O)N(CN4CCOCC4)c4ccccc43)n2)cc1`: greater than 100 µM and 81.7 µM.
The like results for `Cc1cc2nc3c(C#N)c(-c4ccccc4)/c(=C\Nc4ccc(Cl)cc4)c(=O)n3c2cc1C` were, in that order, greater than 100 µM and greater than 100 µM.
For `COc1cccc(C(=O)Nc2c3ccccc3nc3ccccc23)c1OC`, the TGI in the assay on SK-OV-3 ovarian and in the assay with TK-10 renal was greater than 100 µM throughout.
`CCOC(=O)/C(C=Nc1c(C)n(C)n(-c2ccccc2)c1=O)=C(/O)c1ccccc1`: the TGI in the assay with SK-OV-3 ovarian and in the assay on TK-10 renal was greater than 100 µM each time.
As for `O=C(Nc1cc2c(=O)[nH]c3ccccc3c2oc1=O)c1cnccn1`, the TGI in the assay on SK-OV-3 ovarian and in the assay with TK-10 renal was greater than 100 µM throughout.
`O=C1OC2C(O)COC2(O)C1(O)C(C[N+](=O)[O-])c1ccc(Cl)cc1` (stereo not given): the TGI was found to be 3.93 µM with DLD-1 colon; 9.99 µM in the assay with DMS 114 small cell lung; 9.87 µM with DMS 273 small cell lung; 21.6 µM in the assay with HOP-18 NSCLC; 6.17 µM in the assay with KM20L2 colon; 4.07 µM in the assay on LXFL 529 NSCLC. Besides, the TGI was determined as 6.84 µM in the assay with M19-MEL melanoma, 31 µM in the assay on SK-OV-3 ovarian, 71.6 µM with SNB-78 CNS and 25.9 µM in the assay with TK-10 renal.

The values above are taken from PubChem BioAssay (NCI).
